Our source for the IC50 values is patent US10562900B2 (Shanghai Haihe Pharmaceutical Co., Ltd., priority 2014, dated 2020).

Assay type in all cases: biochemical
Common to all, as to conditions: kinase domain recombinant protein, 5 μM ATP

One assay deals with FGFR2 (Homo sapiens (Human), UniProt P21802). Description: FGFR2 kinase activity at the molecular level (ELISA, Poly(Glu,Tyr) 4:1 substrate). The method, then:
(§1) 100 μL/well of 2 mg/mL OPD developing solution (diluted with 0.1M citric acid-sodium citrate buffer containing 0.03% H2O2 (pH=5.4)), and reacted in dark for 1-10 minutes at 25° C.

The target in a further assay is FGFR1 (Homo sapiens (Human), UniProt P11362). Kind of assay: FGFR1 kinase activity at the molecular level (ELISA, Poly(Glu,Tyr) 4:1 substrate). The protocol: as §1
The next assay concerns the target FGFR3 (Homo sapiens (Human), UniProt P22607). Kind of assay: FGFR3 kinase activity at the molecular level (ELISA, Poly(Glu,Tyr) 4:1 substrate). The protocol:
as §1
In general terms: An ELISA detects its analyte on a solid surface through an enzyme-linked reagent.

By IC50 is commonly meant the concentration that inhibits the measured activity by half.

FGFR1, sequence (P11362 478-767): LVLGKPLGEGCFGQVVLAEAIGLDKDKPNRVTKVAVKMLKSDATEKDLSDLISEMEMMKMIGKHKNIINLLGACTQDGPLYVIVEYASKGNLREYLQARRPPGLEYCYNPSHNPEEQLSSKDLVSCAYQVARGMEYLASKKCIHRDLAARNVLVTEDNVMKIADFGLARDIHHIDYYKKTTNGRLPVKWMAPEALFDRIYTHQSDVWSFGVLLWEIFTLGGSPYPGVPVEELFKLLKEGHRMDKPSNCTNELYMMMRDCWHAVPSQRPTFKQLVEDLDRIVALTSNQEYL
FGFR2, sequence (P21802 481-770): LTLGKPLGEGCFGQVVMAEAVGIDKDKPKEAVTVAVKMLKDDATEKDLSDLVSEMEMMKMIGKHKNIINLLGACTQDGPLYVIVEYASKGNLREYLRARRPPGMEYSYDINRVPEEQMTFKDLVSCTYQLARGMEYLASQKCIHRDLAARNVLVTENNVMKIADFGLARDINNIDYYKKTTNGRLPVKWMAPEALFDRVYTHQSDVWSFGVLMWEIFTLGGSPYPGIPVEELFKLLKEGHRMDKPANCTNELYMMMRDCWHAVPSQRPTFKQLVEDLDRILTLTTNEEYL
FGFR3, sequence (P22607 472-761): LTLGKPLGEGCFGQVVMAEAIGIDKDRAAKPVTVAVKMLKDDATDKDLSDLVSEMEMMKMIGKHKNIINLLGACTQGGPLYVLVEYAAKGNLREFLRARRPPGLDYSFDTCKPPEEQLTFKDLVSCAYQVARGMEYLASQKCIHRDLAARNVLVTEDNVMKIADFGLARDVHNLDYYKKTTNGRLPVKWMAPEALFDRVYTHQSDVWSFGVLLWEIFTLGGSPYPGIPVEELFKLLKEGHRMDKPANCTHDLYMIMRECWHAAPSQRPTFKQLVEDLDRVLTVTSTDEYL

In the case of `COc1cc(OC)c(F)c(-c2ccc3c(NC(=O)c4ccc(N5C[C@@H](C)N[C@@H](C)C5)cc4)n[nH]c3c2)c1` [Example 55], the IC50 at FGFR2 and on FGFR1 was below 100 nM each time.
As to `COc1cc(OC)c(Cl)c(-c2ccc3c(NC(=O)c4ccc(N5CCN(C)CC5)cc4)n[nH]c3n2)c1Cl` [Example 63, N-(6-(2,6-dichloro-3,5-dimethoxyphenyl)-1H-pyrazolo [3,4-b]pyridin-3-yl)-4-(4-methylpiperazine-1-yl)benzamide], the half-inhibitory concentration (IC50) at FGFR2, at FGFR3 and on FGFR1 was below 100 nM each time.
For the molecule `COc1cc(OC)c(Cl)c(-c2ccc3c(NC(=O)c4ccc(N5C[C@@H](C)N[C@@H](C)C5)cc4)n[nH]c3n2)c1Cl` [Example 64, N-(6-(2,6-dichloro-3,5-dimethoxyphenyl)-1H-pyrazolo [3,4-b]pyridin-3-yl)-4-((3S,5R)-3,5-dimethylpiperazine-1-yl)benzamide], the half-maximal inhibitory concentration (IC50) at FGFR2 and on FGFR1 was below 100 nM in each case.
In the case of `CCN1CCN(c2ccc(C(=O)Nc3n[nH]c4nc(-c5c(Cl)c(OC)cc(OC)c5Cl)ccc34)cc2)CC1` [Example 65, N-(6-(2,6-dichloro-3,5-dimethoxyphenyl)-1H-pyrazolo [3,4-b]pyridin-3-yl)-4-(4-ethylpiperazine-1-yl)benzamide], the IC50 on FGFR2 and at FGFR1 was below 100 nM throughout.
For `COc1cc(OC)c(Cl)c(-c2ccc3c(NC(=O)c4ccc(N5C[C@@H](C)N[C@@H](C)C5)cc4)n[nH]c3n2)c1` [Example 66], the IC50 on FGFR2 and on FGFR1 was below 100 nM each time.
With `COCCN1CCN(c2ccc(C(=O)Nc3n[nH]c4nc(-c5c(Cl)c(OC)cc(OC)c5Cl)ccc34)cc2)CC1` [Example 67], the half-maximal inhibitory concentration (IC50) on FGFR2 and at FGFR1 was below 100 nM each time.
For `COc1cc(OC)cc(-c2ccc3c(NC(=O)c4ccc(N5C[C@@H](C)N[C@@H](C)C5)cc4)n[nH]c3n2)c1` [Example 68, N-(6-(3,5-dimethoxyphenyl)-1H-pyrazolo [3,4-b]pyridin-3-yl)-4-(((3R,5S)-3,5-dimethylpiperazine-1-yl))benzamide], the IC50 on FGFR2 and at FGFR1 was below 100 nM throughout.
As to `COc1cc(OC)c(Cl)c(-c2ccc3c(NC(=O)c4ccc(N5CCOCC5)cc4)n[nH]c3n2)c1Cl` [Example 70, N-(6-(2,6-dichloro-3,5-dimethoxyphenyl)-1H-pyrazolo [3,4-b]pyridin-3-yl)-4-morpholino benzamide], the concentration for half-maximal inhibition (IC50) at FGFR2 and at FGFR1 was below 100 nM each time.
As to `COc1cc(OC)c(Cl)c(-c2ccc3c(NC(=O)c4ccc(N5C[C@@H](C)N[C@@H](C)C5)nc4)n[nH]c3n2)c1Cl` [Example 71], the IC50 at FGFR2 and at FGFR1 was below 100 nM in each case.
Take `COc1cc(OC)c(Cl)c(-c2ccc3c(NC(=O)c4ccc(N5CCNC(C)(C)C5)cc4)n[nH]c3n2)c1Cl` [Example 72]: the IC50 on FGFR2 and on FGFR1 was below 100 nM in each case.
Regarding `COc1cc(OC)c(Cl)c(-c2ccc3c(NC(=O)c4ccc(N5CC6(CNC6)C5)cc4)n[nH]c3n2)c1Cl` [Example 73, N-(6-(2,6-dichloro-3,5-dimethoxyphenyl)-1H-pyrazolo [3,4-b]pyridin-3-yl)-4-(2,6-diazaspiro [3.3]heptane-2-yl)benzamide], the IC50 at FGFR2 and at FGFR1 was below 100 nM each time.
In the case of `COc1cc(OC)c(Cl)c(-c2ncc3c(NC(=O)c4ccc(N5CCN(C)CC5)cc4)n[nH]c3n2)c1Cl` [Example 83], the half-inhibitory concentration (IC50) on FGFR2 and on FGFR1 was below 100 nM throughout.
`COc1cc(OC)c(Cl)c(-c2ccc3c(NC(=O)c4ccc(N5CCN(C)CC5)nc4)n[nH]c3n2)c1Cl` [Example 85, N-(6-(2,6-dichloro-3,5-dimethoxyphenyl)-1H-pyrazolo [3,4-b]pyridin-3-yl)-6-(4-methylpiperazine-1-yl)nicotinamide]: the IC50 at FGFR2 and on FGFR1 was below 100 nM in each case.
Turning to `CCN1CCN(c2ccc(C(=O)Nc3n[nH]c4nc(-c5c(Cl)c(OC)cc(OC)c5Cl)ccc34)cn2)CC1` [Example 86, N-(6-(2,6-dichloro-3,5-dimethoxyphenyl)-1H-pyrazolo [3,4-b]pyridin-3-yl)-6-(4-ethylpiperazine-1-yl)nicotinamide], the concentration for half-maximal inhibition (IC50) at FGFR2 and at FGFR1 was below 100 nM each time.
With `COc1cc(OC)c(Cl)c(-c2ccc3c(NC(=O)c4ccc(N5CCNC(C)(C)C5)nc4)n[nH]c3n2)c1Cl` [Example 87, N-(6-(2,6-dichloro-3,5-dimethoxyphenyl)-1H-pyrazolo [3,4-b]pyridin-3-yl)-6-(3,3-dimethylpiperazine-1-yl)nicotinamide], the concentration for half-maximal inhibition (IC50) at FGFR2 and on FGFR1 was below 100 nM in each case.
For `COc1cc(OC)c(Cl)c(-c2ccc3c(NC(=O)c4ccc(N5CCN(C6CC6)CC5)nc4)n[nH]c3n2)c1Cl` [Example 88, 6-(4-cyclopropylpiperazine-1-yl)-N-(6-(2,6-dichloro-3,5-dimethoxyphenyl)-1H-pyrazolo [3,4-b]pyridin-3-yl)nicotinamide], the concentration for half-maximal inhibition (IC50) on FGFR2 and at FGFR1 was below 100 nM throughout.
`COc1cc(OC)c(Cl)c(-c2ccc3c(NC(=O)c4ccc(N5CCN(C6CC6)CC5)cc4)n[nH]c3n2)c1Cl` [Example 89]: the IC50 on FGFR2 and on FGFR1 was below 100 nM each time.
For `COc1cc(OC)c(Cl)c(-c2ccc3c(NC(=O)c4ccc(N5C[C@@H](C)N(C)[C@@H](C)C5)cc4)n[nH]c3n2)c1Cl` [Example 90], the half-inhibitory concentration (IC50) on FGFR2 and on FGFR1 was below 100 nM in each case.
As to `COc1cc(OC)c(Cl)c(-c2ccc3c(NC(=O)c4ccc(N5CCNC(C)(C)C5)c(F)c4)n[nH]c3n2)c1Cl` [Example 91, N-(6-(2,6-dichloro-3,5-dimethoxyphenyl)-1H-pyrazolo [3,4-b]pyridin-3-yl)-4-(3,3-dimethylpiperazine-1-yl)-3-fluorobenzamide], the IC50 at FGFR2 and on FGFR1 was below 100 nM each time.
`COc1cc(OC)c(Cl)c(-c2ccc3c(NC(=O)c4cnc(N5CCN(C)CC5)nc4)n[nH]c3n2)c1Cl` [Example 92, N-(6-(2,6-dichloro-3,5-dimethoxyphenyl)-1H-pyrazolo [3,4-b]pyridin-3-yl)-2-(4-methylpiperazine-1-yl)pyrimidine-5-formamide]: the 50% inhibitory concentration (IC50) on FGFR2 and on FGFR1 was below 100 nM each time.
On to `COc1cc(OC)c(F)c(-c2ccc3c(NC(=O)c4ccc(N5CCCCC5)cc4)n[nH]c3c2)c1F` [Example 93, N-(6-(2,6-difluoro-3,5-dimethoxyphenyl)-1H-indazole-3-yl)-4-(piperidine-1-yl)benzamide], for which the IC50 at FGFR2 and on FGFR1 was below 100 nM in each case.
Regarding `COc1cc(OC)c(F)c(-c2ccc3c(NC(=O)c4ccc(CN5CCN(C)CC5)cc4)n[nH]c3c2)c1F` [Example 94, N-(6-(2,6-difluoro-3,5-dimethoxyphenyl)-1H-indazole-3-yl)-4-((4-methylpiperazine-1-yl)methyl)benzamide], the IC50 at FGFR2 and at FGFR1 was below 100 nM each time.
With `COc1cc(OC)c(F)c(-c2ccc3c(NC(=O)c4ccc(N5CCCN(C)CC5)cc4)n[nH]c3c2)c1F` [Example 95, N-(6-(2,6-difluoro-3,5-dimethoxyphenyl)-1H-indazole-3-yl)-4-(4-methyl-1,4-diazepane-1-yl)benzamide], the IC50 on FGFR2 and at FGFR1 was below 100 nM each time.
Turning to `COc1cc(OC)c(F)c(-c2ccc3c(NC(=O)c4cnc(N5CCN(C)CC5)nc4)n[nH]c3c2)c1F` [Example 96, N-(6-(2,6-difluoro-3,5-dimethoxyphenyl)-1H-indazole-3-yl)-2-(4-methylpiperazine-1-yl) pyrimidine-5-formamide], the half-inhibitory concentration (IC50) at FGFR2 and on FGFR1 was below 100 nM in each case.
Take `COc1cc(C(=O)Nc2n[nH]c3cc(-c4c(F)c(OC)cc(OC)c4F)ccc23)ccc1N1CCNC(C)(C)C1` [Example 97, N-(6-(2,6-difluoro-3,5-dimethoxyphenyl)-1H-indazole-3-yl)-4-(3,3-dimethylpiperazine-1-yl)-3-methoxybenzamide]: the IC50 on FGFR2 and on FGFR1 was below 100 nM throughout.
For the molecule `COc1cc(OC)c(F)c(-c2ccc3c(NC(=O)c4ccc(N5CCC(N(C)C)C5)cc4)n[nH]c3c2)c1F` (centres unmarked) [Example 98, N-(6-(2,6-difluoro-3,5-dimethoxyphenyl)-1H-indazole-3-yl)-4-(3-(dimethylamino)pyrrolidine-1-yl)benzamide], the IC50 at FGFR2 and at FGFR1 was below 100 nM each time.
In the case of `COc1cc(OC)c(Cl)c(-c2ccc3c(NC(=O)c4ccc(N5CC(C)(C)NC(C)(C)C5)cc4)n[nH]c3n2)c1Cl` [Example 99], the IC50 on FGFR2 and at FGFR1 was below 100 nM in each case.
Regarding `COc1cc(OC)c(Cl)c(-c2ccc3c(NC(=O)c4ccc(N5CCC(N(C)C)C5)cc4)n[nH]c3n2)c1Cl` (centres unmarked) [Example 100], the half-inhibitory concentration (IC50) on FGFR2 and at FGFR1 was below 100 nM each time.
For `COc1cc(C(=O)Nc2n[nH]c3nc(-c4c(Cl)c(OC)cc(OC)c4Cl)ccc23)ccc1N1CCNC(C)(C)C1` [Example 101, N-(6-(2,6-dichloro-3,5-dimethoxyphenyl)-1H-pyrazolo [3,4-b]pyridin-3-yl)-4-(3,3-dimethylpiperazine-1-yl)-3-methoxybenzamide], the IC50 on FGFR2 and on FGFR1 was below 100 nM each time.
